One experiment has as its target CDK4/Cyclin D3 (Homo sapiens, UniProt P11802). The experiment in a line: Inhibition of CDK4/cyclin-D3 (unknown origin) in presence of ATP by time resolved-FRET assay. The class given is protein-complex assay.
Another experiment has as its target CDK6/cyclin D1 (Homo sapiens, UniProt Q00534). The experiment in a line: Inhibition of CDK6/cyclin-D1 (unknown origin) in presence of ATP by time resolved-FRET assay. The experiment is classed as protein-complex assay.
The subject of experiment [1] is MCF7. The experiment is described as follows: Antiproliferative activity against human MCF7 cells assessed as cell growth inhibition incubated for 72 hrs by CCK-8 assay. The experiment is classed as functional. (Tetrazolium dyes change colour on reduction, which living cells bring about.)
For the next experiment, the system named is MCF-10A. The experiment is described as follows: Antiproliferative activity against human MCF-10A cells assessed as cell growth inhibition incubated for 72 hrs by CCK-8 assay. The experiment is classed as functional.
The subject of experiment [2] is T47D. The experiment in a line: Induction of cell cycle arrest in human T47D cells assessed as accumulation of cells at G1 phase at 1.5 uM incubated for 24 hrs by propidium iodide staining based flow cytometry analysis (reference value: 69.55 %). The experiment is classed as functional. Background: Flow cytometry measures light scatter and fluorescence of single cells or particles in a stream.

In experiment [3] the test system is T47D. The experiment in a line: Induction of cell cycle arrest in human T47D cells assessed as accumulation of cells at G2 phase at 1.5 uM incubated for 24 hrs by propidium iodide staining based flow cytometry analysis (reference value: 16.57%). The class given is functional.
Experiment [4] deals with MCF7. The experiment is described as follows: Induction of cell cycle arrest in human MCF7 cells assessed as accumulation of cells at G1 phase at 1.5 uM incubated for 24 hrs by propidium iodide staining based flow cytometry analysis (reference value: 57.38%). The experiment is classed as functional.
For experiment [5], the system named is MCF7. The experiment is described as follows: Induction of cell cycle arrest in human MCF7 cells assessed as accumulation of cells at G2 phase at 1.5 uM incubated for 24 hrs by propidium iodide staining based flow cytometry analysis (reference value: 29.66%). The class given is functional.
Experiment [6] deals with T47D. The experiment in a line: Antiproliferative activity against human T47D cells assessed as cell growth inhibition incubated for 72 hrs by CCK-8 assay. The class given is functional.
Experiment [7] deals with MCF7. The experiment is described as follows: Induction of cell cycle arrest in human MCF7 cells assessed as accumulation of cells at G1 phase at 2.5 uM incubated for 24 hrs by propidium iodide staining based flow cytometry analysis (reference value: 57.38%). The experiment is classed as functional.
A further experiment relates to ZR-75-1. The experiment is described as follows: Antiproliferative activity against human ZR-75-1 cells assessed as cell growth inhibition incubated for 72 hrs by CCK-8 assay. The experiment is classed as functional.
For experiment [8], the system named is MCF7. The experiment in a line: Induction of cell cycle arrest in human MCF7 cells assessed as accumulation of cells at G2 phase at 2.5 uM incubated for 24 hrs by propidium iodide staining based flow cytometry analysis (reference value: 29.66%). The class given is functional.
The target of the next experiment is CDK9/cyclin T1 (Homo sapiens, UniProt P50750). The experiment is described as follows: Inhibition of CDK9/Cyclin T1 (unknown origin) in presence of ATP by time resolved-FRET assay. The class given is protein-complex assay.
A further experiment addresses CDK2/Cyclin A2 (Homo sapiens, UniProt P24941). The experiment is described as follows: Inhibition of CDK2/Cyclin A (unknown origin) in presence of ATP by time resolved-FRET assay. The class given is protein-complex assay.
A further experiment concerns the target CDK7/Cyclin H/MNAT1 (Homo sapiens, UniProt P50613). The experiment is described as follows: Inhibition of CDK7/cyclin H/MAT1 (unknown origin) in presence of ATP by time resolved-FRET assay. The class given is protein-complex assay.
The nature of experiment [9]: Inhibition of CDK1/cyclin B (unknown origin) in presence of ATP by time resolved-FRET assay. Details: species or system Homo sapiens.

Drawing on ChEMBL document CHEMBL5096234, “Discovery, Optimization, and Evaluation of Selective CDK4/6 Inhibitors for the Treatment of Breast Cancer” (J Med Chem, 2022), this text covers IC50, GI50 and Activity for 30 compounds.

The structures appear in SMILES notation. Bounds are passed on as bounds.

CDK6/cyclin D1, sequence (P24385 whole entry): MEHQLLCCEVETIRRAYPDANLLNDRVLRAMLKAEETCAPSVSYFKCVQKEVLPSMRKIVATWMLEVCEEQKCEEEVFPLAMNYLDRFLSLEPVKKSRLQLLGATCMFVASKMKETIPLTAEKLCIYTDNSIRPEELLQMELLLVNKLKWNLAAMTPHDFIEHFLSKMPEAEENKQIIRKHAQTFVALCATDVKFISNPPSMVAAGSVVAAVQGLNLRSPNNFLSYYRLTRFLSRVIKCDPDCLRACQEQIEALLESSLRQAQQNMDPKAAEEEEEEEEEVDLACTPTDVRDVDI
CDK6/cyclin D1, sequence (Q00534 whole entry): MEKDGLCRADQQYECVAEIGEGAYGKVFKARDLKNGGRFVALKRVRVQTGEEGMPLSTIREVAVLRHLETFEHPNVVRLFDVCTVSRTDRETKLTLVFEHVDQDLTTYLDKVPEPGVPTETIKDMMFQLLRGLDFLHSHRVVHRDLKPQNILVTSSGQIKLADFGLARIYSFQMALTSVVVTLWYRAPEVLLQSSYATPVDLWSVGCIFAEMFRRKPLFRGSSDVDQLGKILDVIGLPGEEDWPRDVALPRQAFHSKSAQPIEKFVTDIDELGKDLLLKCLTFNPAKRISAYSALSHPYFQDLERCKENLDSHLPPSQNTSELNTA
CDK9/cyclin T1, sequence (O60563 whole entry): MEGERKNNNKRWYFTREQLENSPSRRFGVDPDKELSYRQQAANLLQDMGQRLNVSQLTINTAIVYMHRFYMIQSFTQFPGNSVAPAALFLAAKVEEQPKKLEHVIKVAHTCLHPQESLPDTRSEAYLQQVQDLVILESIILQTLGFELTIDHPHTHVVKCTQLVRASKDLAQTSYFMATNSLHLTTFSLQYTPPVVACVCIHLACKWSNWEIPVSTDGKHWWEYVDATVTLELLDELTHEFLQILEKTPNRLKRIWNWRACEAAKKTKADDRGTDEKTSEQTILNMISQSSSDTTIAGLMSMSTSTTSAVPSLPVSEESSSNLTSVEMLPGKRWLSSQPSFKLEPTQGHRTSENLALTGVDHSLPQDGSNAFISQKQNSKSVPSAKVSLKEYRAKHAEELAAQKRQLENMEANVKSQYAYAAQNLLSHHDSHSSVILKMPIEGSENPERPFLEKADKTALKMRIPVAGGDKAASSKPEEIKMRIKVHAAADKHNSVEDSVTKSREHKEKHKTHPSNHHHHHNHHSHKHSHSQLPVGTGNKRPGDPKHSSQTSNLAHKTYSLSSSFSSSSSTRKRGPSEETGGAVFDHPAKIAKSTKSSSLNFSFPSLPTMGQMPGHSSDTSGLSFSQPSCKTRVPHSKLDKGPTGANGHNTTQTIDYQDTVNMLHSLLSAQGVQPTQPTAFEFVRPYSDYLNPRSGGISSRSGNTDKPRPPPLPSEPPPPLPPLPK
CDK9/cyclin T1, sequence (P50750 whole entry): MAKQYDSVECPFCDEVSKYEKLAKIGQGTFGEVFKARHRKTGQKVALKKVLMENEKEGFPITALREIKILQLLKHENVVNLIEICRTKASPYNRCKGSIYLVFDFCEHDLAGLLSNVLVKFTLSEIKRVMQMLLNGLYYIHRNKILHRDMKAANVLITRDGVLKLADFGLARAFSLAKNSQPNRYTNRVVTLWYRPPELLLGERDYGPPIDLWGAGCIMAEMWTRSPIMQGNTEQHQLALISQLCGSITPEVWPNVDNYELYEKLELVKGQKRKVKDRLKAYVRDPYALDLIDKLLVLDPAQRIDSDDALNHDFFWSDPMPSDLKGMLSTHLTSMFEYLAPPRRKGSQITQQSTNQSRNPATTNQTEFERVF
CDK7/Cyclin H/MNAT1, sequence (P51946 whole entry): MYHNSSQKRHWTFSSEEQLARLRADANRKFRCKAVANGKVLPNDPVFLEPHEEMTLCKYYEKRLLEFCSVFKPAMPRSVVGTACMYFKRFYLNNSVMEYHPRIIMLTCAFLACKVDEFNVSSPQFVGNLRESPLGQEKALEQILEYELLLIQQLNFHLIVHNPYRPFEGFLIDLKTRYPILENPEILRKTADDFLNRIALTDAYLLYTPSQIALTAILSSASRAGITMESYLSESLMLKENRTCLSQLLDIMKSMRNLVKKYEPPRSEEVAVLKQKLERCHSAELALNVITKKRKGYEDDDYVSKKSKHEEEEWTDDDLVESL
CDK7/Cyclin H/MNAT1, sequence (P50613 whole entry): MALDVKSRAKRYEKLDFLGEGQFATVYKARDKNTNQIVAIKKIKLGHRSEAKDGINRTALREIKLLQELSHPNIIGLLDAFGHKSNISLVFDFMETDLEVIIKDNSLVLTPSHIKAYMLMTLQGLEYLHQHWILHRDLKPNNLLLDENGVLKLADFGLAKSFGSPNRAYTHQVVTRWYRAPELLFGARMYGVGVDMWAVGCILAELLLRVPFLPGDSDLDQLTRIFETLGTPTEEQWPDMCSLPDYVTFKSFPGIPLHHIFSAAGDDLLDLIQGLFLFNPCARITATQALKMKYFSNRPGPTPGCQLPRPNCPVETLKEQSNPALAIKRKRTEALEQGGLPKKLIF
CDK7/Cyclin H/MNAT1, sequence (P51948 whole entry, further chain): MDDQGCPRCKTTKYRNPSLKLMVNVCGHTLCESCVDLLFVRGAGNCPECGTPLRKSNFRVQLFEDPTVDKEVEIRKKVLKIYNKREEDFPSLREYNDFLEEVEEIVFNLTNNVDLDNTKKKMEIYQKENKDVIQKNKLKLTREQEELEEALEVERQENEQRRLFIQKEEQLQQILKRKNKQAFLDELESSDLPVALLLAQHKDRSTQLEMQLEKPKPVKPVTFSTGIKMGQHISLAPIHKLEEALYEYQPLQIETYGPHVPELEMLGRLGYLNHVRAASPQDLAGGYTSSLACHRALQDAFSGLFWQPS
CDK4/Cyclin D3, sequence (P11802 whole entry): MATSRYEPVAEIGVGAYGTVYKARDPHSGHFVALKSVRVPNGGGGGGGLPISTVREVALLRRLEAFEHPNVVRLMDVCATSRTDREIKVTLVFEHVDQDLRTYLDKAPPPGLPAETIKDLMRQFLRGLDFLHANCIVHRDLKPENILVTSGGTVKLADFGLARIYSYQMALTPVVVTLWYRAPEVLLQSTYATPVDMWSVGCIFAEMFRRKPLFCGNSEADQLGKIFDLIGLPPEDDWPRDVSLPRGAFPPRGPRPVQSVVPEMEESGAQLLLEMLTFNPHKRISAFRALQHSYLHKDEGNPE
CDK4/Cyclin D3, sequence (P30281 whole entry, further chain): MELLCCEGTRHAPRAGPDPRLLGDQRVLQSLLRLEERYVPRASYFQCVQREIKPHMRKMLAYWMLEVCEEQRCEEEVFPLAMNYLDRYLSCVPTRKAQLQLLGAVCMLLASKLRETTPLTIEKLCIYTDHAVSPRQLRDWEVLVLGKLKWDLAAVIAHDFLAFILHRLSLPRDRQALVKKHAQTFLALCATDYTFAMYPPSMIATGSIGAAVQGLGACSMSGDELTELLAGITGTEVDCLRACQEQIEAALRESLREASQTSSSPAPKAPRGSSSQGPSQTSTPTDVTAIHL

In general, IC50 refers to the concentration at which inhibition is half-maximal. What is called GI50 is the concentration giving 50% growth inhibition. Turning to `CCN1CCN(Cc2ccc(Nc3ncc(F)c(-c4ccc5c(c4)OCCO5)n3)nc2)CC1`, the half-inhibitory concentration (IC50) at CDK4/Cyclin D3 worked out at 80 nM; on CDK6/cyclin D1 it was 97 nM. The GI50 with MCF7 [1] was 4.71 µM.

In the case of `CCN1CCN(C(=O)c2ccc(Nc3ncc(F)c(-c4ccc5c(c4)OCO5)n3)nc2)CC1`, the IC50 at CDK6/cyclin D1 is 333 nM.

In the case of `CCN1CCN(Cc2ccc(Nc3ncc(F)c(-c4cc(F)c5nc(C)n(C(C)C)c5c4)n3)nc2)CC1` [ABEMACICLIB], the GI50 was determined as 5.09 µM in the experiment with MCF-10A, 0.832 µM in the experiment with MCF7 [1] and 771 nM in the experiment with T47D [6]. Further, the Activity stood at 81.8% in the experiment on T47D [2], 9.32% with T47D [3], 77.44% in the experiment on MCF7 [4] and 17.65% in the experiment with MCF7 [5].

Take `CCN1CCN(C(=O)c2ccc(Nc3ncc(F)c(-c4ccc5c(c4)OCCO5)n3)nc2)CC1`: the IC50 on CDK6/cyclin D1 stood at 112 nM.

Take `CCN1CCN(C(=O)c2ccc(Nc3ncc(F)c(-c4ccc5c(c4)CCC(=O)N5C(C)C)n3)nc2)CC1`: on CDK6/cyclin D1, the IC50 is 3720 nM.

As to `CC(=O)c1c(C)c2cnc(Nc3ccc(N4CCNCC4)cn3)nc2n(C2CCCC2)c1=O` [PALBOCICLIB], the GI50 in the experiment on MCF-10A was determined as 19.1 µM; in the experiment on ZR-75-1, 2280 nM; with MCF7 [1] it was 3.94 µM; with T47D [6], 1060 nM. Moreover, the Activity is recorded as 84.74% in the experiment with T47D [2], 81.49% in the experiment on MCF7 [7], 6.13% in the experiment with T47D [3] and 14.51% in the experiment on MCF7 [8].

Take `CN1CCc2cc(-c3nc(Nc4ccc(N5CCNCC5)cn4)ncc3F)ccc2C1=O`: the IC50 on CDK4/Cyclin D3 is 3 nM; on CDK9/cyclin T1, 1040 nM; on CDK2/Cyclin A2 it was 676 nM; on CDK6/cyclin D1 it was 32 nM; at CDK7/Cyclin H/MNAT1 it was > 10 µM; in experiment [9], 1210 nM. For the same compound, in the experiment with MCF7 [1], the GI50 was 2.97 µM.

Turning to `CCN1CCN(C(=O)c2ccc(Nc3ncc(F)c(-c4ccc5c(c4)CCNC5=O)n3)nc2)CC1`, the IC50 turned out to be 21 nM at CDK4/Cyclin D3 and 60 nM on CDK6/cyclin D1. The GI50 in the experiment with MCF7 [1] came to 3.24 µM.

`CC(C)N1CCN(C(=O)c2ccc(Nc3ncc(F)c(-c4ccc5c(c4)OCO5)n3)nc2)CC1`: at CDK6/cyclin D1, the concentration for half-maximal inhibition (IC50) turned out to be 296 nM.

Consider `CC(C)(C)OC(=O)N1CCN(c2ccc(Nc3ncc(F)c(-c4ccc5c(c4)OCO5)n3)nc2)CC1`, for which the IC50 at CDK6/cyclin D1 was > 10000 nM.

With `CN1CCN(c2ccc(Nc3ncc(F)c(-c4ccc5c(c4)OCO5)n3)nc2)CC1`, the IC50 on CDK6/cyclin D1 was 1140 nM.

As to `Fc1cnc(Nc2ccc(CN3CCNCC3)cn2)nc1-c1ccc2c(c1)OCCO2`, the IC50 at CDK6/cyclin D1 amounted to 136 nM.

As for `O=C1NCCc2cc(-c3nc(Nc4ccc(N5CCNCC5)cn4)ncc3F)ccc21`, the IC50 at CDK4/Cyclin D3 came to 8 nM; at CDK9/cyclin T1 it was 382 nM; on CDK2/Cyclin A2, 175 nM; at CDK6/cyclin D1, 36 nM; at CDK7/Cyclin H/MNAT1, 8.24 µM; in experiment [9], 148 nM. In addition, in the experiment with MCF7 [1], the GI50 stood at 2.9 µM.

As to `CC(C)N1CCN(C(=O)c2ccc(Nc3ncc(F)c(-c4ccc5c(c4)CCC(=O)N5C(C)C)n3)nc2)CC1`, the IC50 at CDK6/cyclin D1 was > 1000 nM.

As to `Fc1cnc(Nc2ccc(N3CCNCC3)cn2)nc1-c1ccc2c(c1)OCCO2`, the figures for the IC50 at CDK4/Cyclin D3 and on CDK6/cyclin D1 were 36 nM and 81 nM, respectively. For the same compound, in the experiment on MCF7 [1], the GI50 stood at 3.77 µM.

For the compound `Fc1cnc(Nc2ccc(N3CCNCC3)cn2)nc1-c1ccc2c(c1)OCO2`, the IC50 at CDK6/cyclin D1 was 120 nM.

Turning to `CC(C)N1CCc2cc(-c3nc(Nc4ccc(N5CCNCC5)cn4)ncc3F)ccc2C1=O`, the IC50 on CDK4/Cyclin D3 stood at 14 nM; at CDK9/cyclin T1, 1960 nM; on CDK2/Cyclin A2, 495 nM; on CDK6/cyclin D1, 42 nM; on CDK7/Cyclin H/MNAT1, 8.72 µM; in experiment [9] it was 6960 nM. The GI50 in the experiment with MCF7 [1] worked out at 3.07 µM.

With `CC(C)N1CCN(Cc2ccc(Nc3ncc(F)c(-c4ccc5c(c4)CCN(C(C)C)C5=O)n3)nc2)CC1`, the IC50 on CDK6/cyclin D1 turned out to be 640 nM.

For `CCN1CCN(C(=O)c2ccc(Nc3ncc(F)c(-c4ccc5c(c4)CCN(C(C)C)C5=O)n3)nc2)CC1`, the IC50 at CDK6/cyclin D1 is 317 nM.

Consider `CCN1CCN(Cc2ccc(Nc3ncc(F)c(-c4ccc5c(c4)OCO5)n3)nc2)CC1`, for which, at CDK6/cyclin D1, the IC50 was 254 nM.

`CC(C)N1CCN(Cc2ccc(Nc3ncc(F)c(-c4ccc5c(c4)CCC(=O)N5C(C)C)n3)nc2)CC1`: the half-inhibitory concentration (IC50) on CDK6/cyclin D1 was > 1000 nM.

Take `CCN1CCN(C(=O)c2ccc(Nc3ncc(F)c(-c4ccc5c(c4)OCCC5=O)n3)nc2)CC1`: the IC50 on CDK6/cyclin D1 came out at 336 nM.

On to `CC(C)(C)OC(=O)N1CCN(c2ccc(Nc3ncc(F)c(-c4ccc5c(c4)OCCO5)n3)nc2)CC1`, for which the IC50 on CDK6/cyclin D1 is > 10000 nM.

For the compound `O=C(c1ccc(Nc2ncc(F)c(-c3ccc4c(c3)OCCO4)n2)nc1)N1CCNCC1`, the IC50 on CDK6/cyclin D1 came to 117 nM.

Take `CC(C)N1CCN(C(=O)c2ccc(Nc3ncc(F)c(-c4ccc5c(c4)OCCC5=O)n3)nc2)CC1`: the IC50 on CDK6/cyclin D1 amounted to 364 nM.

With `CC(C)(C)OC(=O)N1CCN(Cc2ccc(Nc3ncc(F)c(-c4ccc5c(c4)OCCO5)n3)nc2)CC1`, at CDK6/cyclin D1, the concentration for half-maximal inhibition (IC50) was > 10000 nM.

On to `CC(C)N1CCN(C(=O)c2ccc(Nc3ncc(F)c(-c4ccc5c(c4)OCCO5)n3)nc2)CC1`, for which, at CDK6/cyclin D1, the IC50 was 105 nM.

`CC(C)N1CCN(Cc2ccc(Nc3ncc(F)c(-c4ccc5c(c4)OCCO5)n3)nc2)CC1`: the IC50 on CDK6/cyclin D1 came out at 138 nM.

Take `CN1CCN(c2ccc(Nc3ncc(F)c(-c4ccc5c(c4)OCCO5)n3)nc2)CC1`: the IC50 on CDK6/cyclin D1 worked out at 660 nM.

On to `CC(C)(C)OC(=O)N1CCN(C(=O)c2ccc(Nc3ncc(F)c(-c4ccc5c(c4)OCCO5)n3)nc2)CC1`, for which the IC50 at CDK6/cyclin D1 is > 10000 nM.
